pIC50: −log10 of the molar value. Values joined by “and” are separate entries in the source; they are usually repeats but may differ in a detail not shown here. Equal values may be shown once. Read-outs that look alike come from different tables or passages of the source.
Legend:
cAMP-related PDEs = assay: GloSensor live-cell screening model targeting cAMP (pGloSensor-22F cAMP plasmid in HEK293T cells, forskolin-stimulated); format: cell-based, human; details: for Luminescence Signal (%): cAMP cell screening model, (experimental group - blank control)/blank control luminescence x 100%, compound concentration not given; for pIC50: Homo sapiens, HEK-293T, HEK293T cells, 5 μM forskolin, n = 3, read-out: IC50 detected using the cell screening model targeting cAMP
Description: The HEK293T human embryonic kidney cell line was purchased from SunnCell (Wuhan, China). After recovery, HEK293T cells were passaged 3–4 times a week and cultured at 37 °C in 5% CO2. The culture medium consisted of DMEM, 10% FBS, and 1% antibiotic solution.
Cells were grown to a density of 70–80% in a 6 cm culture dish, the original culture medium was discarded, and 3 mL Opti-MEM was added. A total of 5 μL lipo2000 transfection reagents and 7 μL plasmids were each diluted to 50 μL with Opti-MEM. The above two solutions were mixed, allowed to stand for 20 min, and then added to the cell culture medium. They were then incubated with 5% CO2 at 37 °C for 5 h. The original culture medium was discarded and replaced with the DMEM culture medium. After overnight cultivation at 37 °C and 5% CO2, the transfected cells were transferred to a 96-well plate and cultured under the same conditions for 9 h.
The original culture medium was replaced with 80 μL/well loaded culture medium (containing 2 mM D-Luciferin protein) and incubated at room temperature (20–23 °C) in the dark for 2 h. A total of 10 μL/well with a concentration of 50 μM forskolin (for cAMP testing) or 250 μM SNAP (for cGMP testing) was added to the sample culture medium to increase the level of background cyclic nucleotides in the cells. According to the detection requirements, a certain concentration of analytes was sequentially added to different wells, and the luminescence signal was measured using the SynergyNeo2 (Agilent, Santa Clara, CA, USA) instrument at time 0. The measurement was conducted every 5 min, and the longest duration was based on the start of the luminescence signal’s decline.
(§1) Data analysis was carried out using Microsoft Excel and GraphPad Prism 8 software (version 8.0.2 for Windows, GraphPad Software, San Diego, CA, USA). The data in the luminescence signal from the replica well were averaged to produce a response vs. time curve. The cell screening results of the compounds were expressed as percentages (the difference in luminescence signals between the experimental group and the blank control group/blank control group luminescence signal × 100%). For the measurement of IC50, at least seven concentrations of chemicals were used, and IC50 values were calculated using the nonlinear method.
Considering the detection efficiency, the possible toxicity of the reagent to cells, and the Z-factor, the optimal concentration of the AC agonist forskolin required for the cell screening model targeting cAMP was set at 5 μM.
To determine the shortest detection time for the two cell models, the luminescence signal–time curve was established. Based on the variations in luminescence detection values over time from two sets of data (Figure 2), it was determined that the detection time for cell screening models targeting cAMP should not be less than 35 min, while the detection time for cell screening models targeting cGMP should not be less than 30 min.

[1] = target: T1, Recombinant human PDE7A/HCP1 protein (Homo sapiens, UniProt Q13946); assay: In vitro enzymatic activity assay (PDE-Glo Phosphodiesterase Assay), PDE7A; format: biochemical
T1 construct: purchased Abcam ab125786
Description: (§2) Penicillin–Streptomycin solution (10,000 U/mL Penicillin, 10,000 μg/mL Streptomycin; Cat #C100C5) was obtained from NCM Biotech (Suzhou, China). Fetal Bovine Serum (FBS; Cat #BC-SE-FBS01) and phosphate-buffered saline (PBS; Cat #10010001) were obtained from Sbjbio (Nanjing, China). Trypsin-EDTA Solution (Cat #BL512A) was obtained from Biosharp (Hefei, China). DMEM medium (High Glucose; Cat #XB01-01) was obtained from VivaCell (Shanghai, China). Opti-MEM medium (Cat #Lvn1012A) was obtained from Livning (Beijing, China). […] The Lipofectamine™ 2000 Transfection Kit (Cat #11668500) was obtained from Thermo Fisher Scientific (Waltham, MA, USA). The pGloSensor™-22F cAMP Plasmid map (Cat #E2301), pGloSensor™-42F cGMP Plasmid map (Cat #CS177001), and PDE-Glo™ Phosphodiesterase Assay (Cat #V1361) were purchased from Promega (Madison, WI, USA). Recombinant human PDE4B protein (Cat #ab125582) and recombinant human PDE7A/HCP1 protein (Cat #ab125786) were obtained from Abcam (Cambridgeshire, UK). Compounds 1–7 were provided by Guoqiang Li’s research group (School of Medicine and Pharmacy, Ocean University, Qingdao, China).
(§3) The inhibitory activities of the compounds against PDE4B and PDE7A were determined according to the procedures required for the PDE-Glo™ Phosphodiesterase Assay.
as §1

[2] = target: T2, Recombinant human PDE4B protein (Homo sapiens, UniProt Q07343); assay: In vitro enzymatic activity assay (PDE-Glo Phosphodiesterase Assay), PDE4B; format: biochemical
T2 construct: purchased Abcam ab125582
Description: as §2, with “UK).” for “UK). Compounds 1–7 were provided by Guoqiang Li’s research group (School of Medicine and Pharmacy, Ocean University, Qingdao, China).”
as §3
Data analysis was carried out using Microsoft Excel and GraphPad Prism 8 software (version 8.0.2 for Windows, GraphPad Software, San Diego, CA, USA). The data in the luminescence signal from the replica well were averaged to produce a response vs. time curve. […] For the measurement of IC50, at least seven concentrations of chemicals were used, and IC50 values were calculated using the nonlinear method.

cGMP-related PDEs = assay: GloSensor live-cell screening model targeting cGMP (pGloSensor-42F cGMP plasmid in HEK293T cells, SNAP-stimulated); format: cell-based; details: Homo sapiens, HEK-293T, read-out: IC50 detected using the cell screening model targeting cGMP
Description: The HEK293T human embryonic kidney cell line was purchased from SunnCell (Wuhan, China). After recovery, HEK293T cells were passaged 3–4 times a week and cultured at 37 °C in 5% CO2. The culture medium consisted of DMEM, 10% FBS, and 1% antibiotic solution. Cells were grown to a density of 70–80% in a 6 cm culture dish, the original culture medium was discarded, and 3 mL Opti-MEM was added. A total of 5 μL lipo2000 transfection reagents and 7 μL plasmids were each diluted to 50 μL with Opti-MEM. The above two solutions were mixed, allowed to stand for 20 min, and then added to the cell culture medium. They were then incubated with 5% CO2 at 37 °C for 5 h. The original culture medium was discarded and replaced with the DMEM culture medium. After overnight cultivation at 37 °C and 5% CO2, the transfected cells were transferred to a 96-well plate and cultured under the same conditions for 9 h. The original culture medium was replaced with 80 μL/well loaded culture medium (containing 2 mM D-Luciferin protein) and incubated at room temperature (20–23 °C) in the dark for 2 h. A total of 10 μL/well with a concentration of 50 μM forskolin (for cAMP testing) or 250 μM SNAP (for cGMP testing) was added to the sample culture medium to increase the level of background cyclic nucleotides in the cells. According to the detection requirements, a certain concentration of analytes was sequentially added to different wells, and the luminescence signal was measured using the SynergyNeo2 (Agilent, Santa Clara, CA, USA) instrument at time 0. The measurement was conducted every 5 min, and the longest duration was based on the start of the luminescence signal’s decline. Data analysis was carried out using Microsoft Excel and GraphPad Prism 8 software (version 8.0.2 for Windows, GraphPad Software, San Diego, CA, USA). The data in the luminescence signal from the replica well were averaged to produce a response vs. time curve. The cell screening results of the compounds were expressed as percentages (the difference in luminescence signals between the experimental group and the blank control group/blank control group luminescence signal × 100%). For the measurement of IC50, at least seven concentrations of chemicals were used, and IC50 values were calculated using the nonlinear method. […] Similar to the cell screening models targeting cAMP, the cell screening models targeting cGMP could not effectively detect the ability of sildenafil to increase intracellular cGMP levels when the GC agonist SNAP was not present or was at low concentrations. […] To determine the shortest detection time for the two cell models, the luminescence signal–time curve was established.

PDE5 = system: PDE5; parameters: method as in PMID 12646997; details: cited from earlier work
[3] = HEK293T cells, 25 μM SNAP, n = 3

T2 sequence (Q07343 whole entry): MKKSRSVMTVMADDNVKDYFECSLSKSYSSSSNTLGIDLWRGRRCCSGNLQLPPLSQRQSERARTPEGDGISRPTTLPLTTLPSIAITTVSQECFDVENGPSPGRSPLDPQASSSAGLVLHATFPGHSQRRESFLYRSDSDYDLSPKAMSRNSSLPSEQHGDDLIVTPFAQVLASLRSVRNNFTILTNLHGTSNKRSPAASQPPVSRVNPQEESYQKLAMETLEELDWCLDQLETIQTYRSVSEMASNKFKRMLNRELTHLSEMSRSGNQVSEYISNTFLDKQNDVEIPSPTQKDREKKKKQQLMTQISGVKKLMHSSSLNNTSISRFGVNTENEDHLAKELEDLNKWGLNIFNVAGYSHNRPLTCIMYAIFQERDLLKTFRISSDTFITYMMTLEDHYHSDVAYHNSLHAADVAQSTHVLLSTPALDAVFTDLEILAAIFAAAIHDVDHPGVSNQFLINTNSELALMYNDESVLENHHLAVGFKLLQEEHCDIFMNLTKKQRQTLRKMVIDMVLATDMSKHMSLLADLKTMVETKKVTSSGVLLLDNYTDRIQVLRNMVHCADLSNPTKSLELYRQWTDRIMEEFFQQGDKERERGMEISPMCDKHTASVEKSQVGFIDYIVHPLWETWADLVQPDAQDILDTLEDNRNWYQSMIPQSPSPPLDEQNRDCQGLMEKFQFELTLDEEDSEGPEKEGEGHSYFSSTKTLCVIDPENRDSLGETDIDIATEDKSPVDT
T1 sequence (Q13946 whole entry): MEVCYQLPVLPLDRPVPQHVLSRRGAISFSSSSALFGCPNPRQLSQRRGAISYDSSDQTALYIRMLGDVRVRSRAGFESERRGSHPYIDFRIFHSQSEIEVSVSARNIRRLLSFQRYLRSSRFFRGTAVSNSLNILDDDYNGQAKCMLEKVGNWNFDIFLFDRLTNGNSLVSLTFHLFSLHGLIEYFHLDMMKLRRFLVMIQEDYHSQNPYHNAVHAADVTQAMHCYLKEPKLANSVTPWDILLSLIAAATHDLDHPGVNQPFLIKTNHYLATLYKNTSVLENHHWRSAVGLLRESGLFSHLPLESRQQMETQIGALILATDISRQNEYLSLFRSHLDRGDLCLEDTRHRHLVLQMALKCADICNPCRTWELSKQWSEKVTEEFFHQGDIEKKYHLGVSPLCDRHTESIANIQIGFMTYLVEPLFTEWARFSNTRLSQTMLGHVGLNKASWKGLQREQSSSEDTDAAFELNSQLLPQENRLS

| SMILES | Luminescence Signal (%) (cAMP-related PDEs) | pIC50 [1] | pIC50 [2] | further results |
| --- | --- | --- | --- | --- |
| CC(=O)O[C@@H]1C(=O)CCC2=CCC[C@H](C)[C@@]2(C)/C=C\1C [Compound 6, 4-acetoxy-2,8-neolemnadien-5-one] | 51% | 4.44 | – | PDE7A inhibitory activity (in words) [1]: weak |
| COc1ccccc1C=Cc1ccc(N(C)C)cc1 [Compound 5, 4-[2-(2-Methoxyphenyl)-ethenyl]-N,N-dimethylbenzenamine] | 55% | 5.68 | 4.85 | – |
| Cc1nc(-c2cnn(C)c2-c2ccc(C(F)(F)F)cn2)c2c(N3CCC3)ncnn12 [PF-999, PF-05180999, reference compound] | – | – | – | pIC50 (cGMP-related PDEs; [3]): 4.34; pIC50 (cAMP-related PDEs): 3.85 |
| Cc1c(O)c(C)c2c(c1O)C(=O)O[C@](C)(O)[C@H]2C [Compound 7, (3S,4S)-sclerotinin A] | 53% | ~5.25 and 5.25 | 4.55 | PDE4B inhibitory activity (in words) [2]: weak |
| COc1cc(C=Cc2ccncc2)cc(OC)c1OC [Compound 4, 4-[2-(3,4,5-Trimethoxyphenyl)-ethenyl] pyridine] | 77% | 5.07 | 4.90 | – |
| Clc1cccc(Cl)c1C=Cc1ccccn1 [Compound 1, 2-[2-(2,6-Dichlorophenyl)-ethenyl] pyridine] | 109% | 4.54 | 4.20 | – |
| CC(C)Cn1c(=O)n(C)c(=O)c2[nH]cnc21 [IBMX, Isobutylmethylxanthine, reference compound] | – | – | – | pIC50 (cGMP-related PDEs; [3]): 3.73; pIC50 (cAMP-related PDEs): 4.54 |
| Cc1ccc([N+](=O)[O-])cc1S(=O)(=O)N(C)C [BRL-50481, reference compound] | – | 6.70 | – | – |
| COc1cc(C=Cc2cccnc2)cc(OC)c1OC [Compound 3, 3-[2-(3,4,5-Trimethoxyphenyl)-ethenyl] pyridine] | 87% | 5.35 | 5.24 | – |
| COc1ccc(C2CNC(=O)C2)cc1OC1CCCC1 (stereo not shown) [Rolipram, rolipram, reference compound] | 300% | – | – | pIC50 (cAMP-related PDEs): ~7.00; difference in luminescence signal values between rolipram and PBS groups (cAMP-related PDEs; rolipram 5 μM, forskolin 5 μM, cAMP cell model): over 1000 |
| CCCc1nn(C)c2c(=O)[nH]c(-c3cc(S(=O)(=O)N4CCN(C)CC4)ccc3OCC)nc12 [Sildenafil, sildenafil] | – | – | – | pIC50 (cGMP-related PDEs; [3]): ~7.00 |
| COc1cc2c(cc1OC)-c1c(OC)c(OC)cc3c1[C@H](C2)N(C)CC3 [Glaucine, reference compound] | – | – | – | pIC50 (cAMP-related PDEs): 4.22 |
| COc1ccc(-c2oc3c(CC=C(C)C)c(O[C@@H]4O[C@H](CO)[C@@H](O)[C@H](O)[C@H]4O)cc(O)c3c(=O)c2O[C@@H]2O[C@@H](C)[C@H](O)[C@@H](O)[C@H]2O)cc1 [Icariin] | – | – | – | pIC50 (cGMP-related PDEs): 3.19; pIC50 (PDE5): 6.36 |
| COc1cc(C=Cc2ccccn2)cc(OC)c1OC [Compound 2, 2-[2-(3,4,5-Trimethoxyphenyl)-ethenyl] pyridine] | 51% | 4.32 | 4.59 | – |

From paper PMC11117652, “The Construction and Application of a New Screening Method for Phosphodiesterase Inhibitors” (Biosensors, 2024)
